Test results reported in US20140349396A1, “Compositions and Methods Relating to Clonal Progenitor Cells” (priority 2011, published 2014).

Test system: myoblasts
Test: Culture of hES-derived clonal myoblasts with or without the TGFβ inhibitor
Format: cell-based, human
Settings: removal of SB431542 together with switch from Matrigel to gelatin substrate (FIG. 11)
Source text: FIG. 11 is a photomicrograph showing myoblasts grown on Matrigel® in the presence of a TGFβ inhibitor (SB431542)(top) and myoblasts switched to gelatin without the TGFβ inhibitor.

For `NC(=O)c1ccc(-c2nc(-c3ccc4c(c3)OCO4)c(-c3ccccn3)[nH]2)cc1` [SB431542], the proliferation of myoblasts was “increased proliferation”.
